Test results: patent US20080234262A1 (Wyeth, priority 2007, published 2008)

Key:
prostate line LNCap = assay: In vitro cell culture growth assay (MTS), LNCap; type: cell-based, human; conditions: Homo sapiens, LNCaP, 72 h, LNCap cells, three days after drug treatment
breast line MDA468 = assay: In vitro cell culture growth assay (MTS), MDA468; type: cell-based, human; conditions: Homo sapiens, 72 h, MDA468 cells, three days after drug treatment
How it was run: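 Cells were plated and, one day later, exposed to inhibitors for three days; viable cell density was then measured by metabolic conversion of MTS dye, read as absorbance at 490 nm. Growth is expressed as percent of vehicle-treated control cells on the same plate.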

PI3K = PI3K (Homo sapiens, UniProt P42336); assay: Fluorescence polarization assay for PI3K; type: biochemical; conditions: PI3Kα; read-out: PI3Kα IC50;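 note: PI3K kinase reaction on PIP2 with ATP, 30-60 min, product sensed by GST-GRP with red probe in fluorescence polarization (mP), controls without enzyme and at zero time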
Sequence of PI3K (P42336 whole entry): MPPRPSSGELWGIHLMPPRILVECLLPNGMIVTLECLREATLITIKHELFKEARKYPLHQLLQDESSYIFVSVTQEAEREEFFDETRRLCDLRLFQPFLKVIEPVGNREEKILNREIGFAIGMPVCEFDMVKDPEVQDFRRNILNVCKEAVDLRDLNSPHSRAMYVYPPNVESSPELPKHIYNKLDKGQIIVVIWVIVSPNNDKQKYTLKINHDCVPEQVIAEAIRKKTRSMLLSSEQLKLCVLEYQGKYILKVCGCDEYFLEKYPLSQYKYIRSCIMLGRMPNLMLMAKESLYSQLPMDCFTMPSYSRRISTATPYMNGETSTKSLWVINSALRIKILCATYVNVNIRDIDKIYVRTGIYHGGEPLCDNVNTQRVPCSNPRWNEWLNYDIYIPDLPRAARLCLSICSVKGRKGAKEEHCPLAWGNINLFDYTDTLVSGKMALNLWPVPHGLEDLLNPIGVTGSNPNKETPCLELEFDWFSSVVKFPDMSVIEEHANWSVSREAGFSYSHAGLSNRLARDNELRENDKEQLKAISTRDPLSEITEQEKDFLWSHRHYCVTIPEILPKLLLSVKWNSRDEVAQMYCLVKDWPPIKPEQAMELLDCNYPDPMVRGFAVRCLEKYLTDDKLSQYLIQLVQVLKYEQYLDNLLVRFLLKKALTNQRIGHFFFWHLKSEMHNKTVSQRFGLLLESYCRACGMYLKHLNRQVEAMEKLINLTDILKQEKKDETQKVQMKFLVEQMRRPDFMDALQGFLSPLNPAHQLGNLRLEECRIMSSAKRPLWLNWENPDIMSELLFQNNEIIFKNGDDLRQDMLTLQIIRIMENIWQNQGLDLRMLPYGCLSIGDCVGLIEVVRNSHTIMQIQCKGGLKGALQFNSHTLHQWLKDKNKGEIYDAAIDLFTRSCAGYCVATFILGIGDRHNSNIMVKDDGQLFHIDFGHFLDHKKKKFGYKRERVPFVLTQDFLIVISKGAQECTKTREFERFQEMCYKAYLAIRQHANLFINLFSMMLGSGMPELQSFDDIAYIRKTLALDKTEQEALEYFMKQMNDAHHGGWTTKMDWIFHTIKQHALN
Sequence of PI3K (P27986 whole entry partner): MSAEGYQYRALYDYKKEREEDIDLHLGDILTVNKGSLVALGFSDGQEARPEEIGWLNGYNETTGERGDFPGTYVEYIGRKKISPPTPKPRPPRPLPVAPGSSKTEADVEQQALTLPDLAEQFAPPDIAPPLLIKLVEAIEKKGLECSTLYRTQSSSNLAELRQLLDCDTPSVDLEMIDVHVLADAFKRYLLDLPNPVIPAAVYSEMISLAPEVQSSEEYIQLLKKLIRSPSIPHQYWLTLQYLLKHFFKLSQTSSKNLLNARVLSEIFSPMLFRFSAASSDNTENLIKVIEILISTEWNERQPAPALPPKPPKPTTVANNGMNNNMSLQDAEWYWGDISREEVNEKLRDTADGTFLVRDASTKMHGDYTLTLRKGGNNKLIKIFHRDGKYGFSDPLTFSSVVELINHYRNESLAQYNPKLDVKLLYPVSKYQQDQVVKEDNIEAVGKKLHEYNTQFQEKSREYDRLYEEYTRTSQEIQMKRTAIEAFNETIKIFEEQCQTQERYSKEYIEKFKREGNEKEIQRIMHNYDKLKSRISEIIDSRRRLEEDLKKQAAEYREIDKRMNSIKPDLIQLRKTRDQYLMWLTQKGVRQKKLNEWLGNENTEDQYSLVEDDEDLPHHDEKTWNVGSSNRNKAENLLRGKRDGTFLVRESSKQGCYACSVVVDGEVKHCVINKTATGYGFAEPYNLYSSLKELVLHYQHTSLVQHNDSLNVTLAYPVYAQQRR

Compound	IC50 (prostate line LNCap) [nM]	IC50 (PI3K) [nM]	IC50 (breast line MDA468) [nM]
O=C(Nc1ccc(-c2nc(N3CCOCC3)c3cnn(C4CCN(CC(F)(F)F)CC4)c3n2)cc1)Nc1ccccn1 [Compound 785, 1-(4-{4-morpholin-4-yl-1-[1-(2,2,2-trifluoroethyl)piperidin-4-yl]-1H-pyrazolo[3,4-d]pyrimidin-6-yl}phenyl)-3-pyridin-2-ylurea]	3800	890	12000
O=C(NCCO)Nc1ccc(-c2nc(N3CCOCC3)c3cnn(CC(F)(F)F)c3n2)cc1 [Compound 791, 1-(2-hydroxyethyl)-3-{4-[4-morpholin-4-yl-1-(2,2,2-trifluoroethyl)-1H-pyrazolo[3,4-d]pyrimidin-6-yl]phenyl}urea]	220	136	260
CNC(=O)Nc1ccc(-c2nc(N3CCOCC3)c3cnn(C4CCN(CC#N)CC4)c3n2)cc1 [Compound 793, 1-(4-{1-[1-(cyanomethyl)piperidin-4-yl]-4-morpholin-4-yl-1H-pyrazolo[3,4-d]pyrimidin-6-yl}phenyl)-3-methylurea]	1010	76	1200
CNC(=O)Nc1ccc(-c2nc(N3CCOCC3)c3cnn(C4CCN(CC(=O)O)CC4)c3n2)cc1 [Compound 798, [4-(6-{4-[(methylcarbamoyl)amino]phenyl}-4-morpholin-4-yl-1H-pyrazolo[3,4-d]pyrimidin-1-yl)piperidin-1-yl]acetic acid]	> 60000	438	> 60000
C=CCN1CCC(n2ncc3c(N4CCOCC4)nc(-c4ccc(NC(=O)NC)cc4)nc32)CC1 [Compound 799, 1-{4-[1-(1-allylpiperidin-4-yl)-4-morpholin-4-yl-1H-pyrazolo[3,4-d]pyrimidin-6-yl]phenyl}-3-methylurea]	140	72	510
CNC(=O)Nc1ccc(-c2nc(N3CCOCC3)c3cnn(C4CCN(C(=O)OCCOC)CC4)c3n2)cc1 [Compound 800, 2-methoxyethyl 4-(6-{4-[(methylcarbamoyl)amino]phenyl}-4-morpholin-4-yl-1H-pyrazolo[3,4-d]pyrimidin-1-yl)piperidine-1-carboxylate]	140	119	260
CNCCOC(=O)N1CCC(n2ncc3c(N4CCOCC4)nc(-c4ccc(NC(=O)NC)cc4)nc32)CC1 [Compound 802, 2-(methylamino)ethyl 4-(6-{4-[(methylcarbamoyl)amino]phenyl}-4-morpholin-4-yl-1H-pyrazolo[3,4-d]pyrimidin-1-yl)piperidine-1-carboxylate]	10000	181	5500
CNC(=O)Nc1ccc(-c2nc(N3CCOCC3)c3cnn(C4CCN(C(=O)OCCN(C)C)CC4)c3n2)cc1 [Compound 803, 2-(dimethylamino)ethyl 4-(6-{4-[(methylcarbamoyl)amino]phenyl}-4-morpholin-4-yl-1H-pyrazolo[3,4-d]pyrimidin-1-yl)piperidine-1-carboxylate]	1000	173	1000
CNC(=O)Nc1ccc(-c2nc(N3CCOCC3)c3cnn(C4CCN(C(=O)OCCBr)CC4)c3n2)cc1 [Compound 804, 2-bromoethyl 4-(6-{4-[(methylcarbamoyl)amino]phenyl}-4-morpholin-4-yl-1H-pyrazolo[3,4-d]pyrimidin-1-yl)piperidine-1-carboxylate]	700	140	800
CCOC(=O)N1CCC(n2ncc3c(N4CCOCC4)nc(-c4ccc(NC(=O)OC)cc4)nc32)CC1 [Compound 805, ethyl 4-(6-{4-[(methoxycarbonyl)amino]phenyl}-4-morpholin-4-yl-1H-pyrazolo[3,4-d]pyrimidin-1-yl)piperidine-1-carboxylate]	510	2670	800
COC(=O)Nc1ccc(-c2nc(N3CCOCC3)c3cnn(C4CCN(C(=O)OC(C)C)CC4)c3n2)cc1 [Compound 806, isopropyl 4-(6-{4-[(methoxycarbonyl)amino]phenyl}-4-morpholin-4-yl-1H-pyrazolo[3,4-d]pyrimidin-1-yl)piperidine-1-carboxylate]	700	4550	900
CCSC(=O)N1CCC(n2ncc3c(N4CCOCC4)nc(-c4ccc(NC(=O)OC)cc4)nc32)CC1 [Compound 807, S-ethyl 4-(6-{4-[(methoxycarbonyl)amino]phenyl}-4-morpholin-4-yl-1H-pyrazolo[3,4-d]pyrimidin-1-yl)piperidine-1-carbothioate]	1400	4450	8000
COC(=O)Nc1ccc(-c2nc(N3CCOCC3)c3cnn(C4CCN(C(=O)N(C)C)CC4)c3n2)cc1 [Compound 808, methyl (4-{1-[1-(dimethylcarbamoyl)piperidin-4-yl]-4-morpholin-4-yl-1H-pyrazolo[3,4-d]pyrimidin-6-yl}phenyl)carbamate]	430	2620	690
COC(=O)Nc1ccc(-c2nc(N3CCOCC3)c3cnn(C4CCN(C(C)=O)CC4)c3n2)cc1 [Compound 809, methyl {4-[1-(1-acetylpiperidin-4-yl)-4-morpholin-4-yl-1H-pyrazolo[3,4-d]pyrimidin-6-yl]phenyl}carbamate]	2300	2100	4500

The next lines start with results.

IC50 (prostate line LNCap) [nM]	IC50 (PI3K) [nM]	Compound	IC50 (breast line MDA468) [nM]
60	1120	O=C(NCCF)Nc1ccc(-c2nc(N3CCOCC3)c3cnn(C4CCN(CC(F)(F)F)CC4)c3n2)cc1 [Compound 783, 1-(2-fluoroethyl)-3-(4-{4-morpholin-4-yl-1-[1-(2,2,2-trifluoroethyl)piperidin-4-yl]-1H-pyrazolo[3,4-d]pyrimidin-6-yl}phenyl)urea]	390
100	380	O=C(NCCO)Nc1ccc(-c2nc(N3CCOCC3)c3cnn(C4CCN(CC(F)(F)F)CC4)c3n2)cc1 [Compound 784, 1-(2-hydroxyethyl)-3-(4-{4-morpholin-4-yl-1-[1-(2,2,2-trifluoroethyl)piperidin-4-yl]-1H-pyrazolo[3,4-d]pyrimidin-6-yl}phenyl)urea]	1050
80	48	O=C(Nc1ccncc1)Nc1ccc(-c2nc(N3CCOCC3)c3cnn(C4CCN(CC(F)(F)F)CC4)c3n2)cc1 [Compound 786, 1-(4-{4-morpholin-4-yl-1-[1-(2,2,2-trifluoroethyl)piperidin-4-yl]-1H-pyrazolo[3,4-d]pyrimidin-6-yl}phenyl)-3-pyridin-4-ylurea]	1100
27	40	O=C(Nc1ccc(-c2nc(N3CCOCC3)c3cnn(C4CCN(CC(F)(F)F)CC4)c3n2)cc1)Nc1cccnc1 [Compound 787, 1-(4-{4-morpholin-4-yl-1-[1-(2,2,2-trifluoroethyl)piperidin-4-yl]-1H-pyrazolo[3,4-d]pyrimidin-6-yl}phenyl)-3-pyridin-3-ylurea]	140
120	734	O=C(Nc1ccc(-c2nc(N3CCOCC3)c3cnn(C4CCN(CC(F)(F)F)CC4)c3n2)cc1)NC1CC1 [Compound 788, 1-cyclopropyl-3-(4-{4-morpholin-4-yl-1-[1-(2,2,2-trifluoroethyl)piperidin-4-yl]-1H-pyrazolo[3,4-d]pyrimidin-6-yl}phenyl)urea]	1600
100	18	O=C(Nc1ccccc1)Nc1ccc(-c2nc(N3CCOCC3)c3cnn(C4CCN(CC(F)(F)F)CC4)c3n2)cc1 [Compound 789, 1-(4-{4-morpholin-4-yl-1-[1-(2,2,2-trifluoroethyl)piperidin-4-yl]-1H-pyrazolo[3,4-d]pyrimidin-6-yl}phenyl)-3-phenylurea]	900
60	314	O=C(NCCF)Nc1ccc(-c2nc(N3CCOCC3)c3cnn(CC(F)(F)F)c3n2)cc1 [Compound 790, 1-(2-fluoroethyl)-3-{4-[4-morpholin-4-yl-1-(2,2,2-trifluoroethyl)-1H-pyrazolo[3,4-d]pyrimidin-6-yl]phenyl}urea]	150
< 27	10	O=C(Nc1ccc(-c2nc(N3CCOCC3)c3cnn(CC(F)(F)F)c3n2)cc1)Nc1cccnc1 [Compound 792, 1-{4-[4-morpholin-4-yl-1-(2,2,2-trifluoroethyl)-1H-pyrazolo[3,4-d]pyrimidin-6-yl]phenyl}-3-pyridin-3-ylurea]	< 27
140	126	CNC(=O)Nc1ccc(-c2nc(N3CCOCC3)c3cnn(C4CCN(CC(=O)OC)CC4)c3n2)cc1 [Compound 794, methyl [4-(6-{4-[(methylcarbamoyl)amino]phenyl}-4-morpholin-4-yl-1H-pyrazolo[3,4-d]pyrimidin-1-yl)piperidin-1-yl]acetate]	500
102	158	CCOC(=O)CN1CCC(n2ncc3c(N4CCOCC4)nc(-c4ccc(NC(=O)NC)cc4)nc32)CC1 [Compound 795, ethyl [4-(6-{4-[(methylcarbamoyl)amino]phenyl}-4-morpholin-4-yl-1H-pyrazolo[3,4-d]pyrimidin-1-yl)piperidin-1-yl]acetate]	420
103	155	CNC(=O)Nc1ccc(-c2nc(N3CCOCC3)c3cnn(C4CCN(CC5OCCO5)CC4)c3n2)cc1 [Compound 797, 1-(4-{1-[1-(1,3-dioxolan-2-ylmethyl)piperidin-4-yl]-4-morpholin-4-yl-1H-pyrazolo[3,4-d]pyrimidin-6-yl}phenyl)-3-methylurea]	300
31	50	CC#CCOC(=O)N1CCC(n2ncc3c(N4CCOCC4)nc(-c4ccc(NC(=O)NC)cc4)nc32)CC1 [Compound 801, but-2-yn-1-yl 4-(6-{4-[(methylcarbamoyl)amino]phenyl}-4-morpholin-4-yl-1H-pyrazolo[3,4-d]pyrimidin-1-yl)piperidine-1-carboxylate]	120
